Test results taken from ChEMBL document CHEMBL6153056 (Eur J Med Chem, 2025).
Each block holds one molecule with its values, some of them ahead of it. Active and inactive are the calls of the source. The calls are words filed in the database; no cut-off is given here.

What was measured:
[1] = molecular target: CDK9/cyclin T1 (Homo sapiens, UniProt P50750); assay: Inhibition of CDK9/cyclin T1 (unknown origin) pre-incubated for 20 min followed by 32P-ATP addition and measured after 2 hrs; type: protein-complex assay
CDK9/cyclin T1, sequence (O60563 whole entry): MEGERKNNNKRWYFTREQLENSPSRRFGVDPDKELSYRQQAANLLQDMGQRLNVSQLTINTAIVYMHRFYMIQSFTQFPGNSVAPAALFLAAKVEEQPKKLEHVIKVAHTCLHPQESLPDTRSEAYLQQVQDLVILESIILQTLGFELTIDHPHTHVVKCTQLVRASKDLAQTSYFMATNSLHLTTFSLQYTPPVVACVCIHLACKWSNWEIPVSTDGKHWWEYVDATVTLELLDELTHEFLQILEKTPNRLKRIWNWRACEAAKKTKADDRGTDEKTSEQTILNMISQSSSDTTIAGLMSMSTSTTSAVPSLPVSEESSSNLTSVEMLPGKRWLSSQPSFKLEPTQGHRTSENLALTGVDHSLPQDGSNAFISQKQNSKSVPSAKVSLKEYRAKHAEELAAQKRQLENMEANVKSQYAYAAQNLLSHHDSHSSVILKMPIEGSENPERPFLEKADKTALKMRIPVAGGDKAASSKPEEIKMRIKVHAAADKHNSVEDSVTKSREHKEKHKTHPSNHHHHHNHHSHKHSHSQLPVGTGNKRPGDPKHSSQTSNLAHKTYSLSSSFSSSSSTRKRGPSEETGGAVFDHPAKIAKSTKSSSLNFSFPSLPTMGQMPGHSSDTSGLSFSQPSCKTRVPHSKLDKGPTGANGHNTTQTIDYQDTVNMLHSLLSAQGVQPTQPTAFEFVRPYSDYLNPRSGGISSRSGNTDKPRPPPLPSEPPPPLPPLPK
CDK9/cyclin T1, sequence (P50750 whole entry): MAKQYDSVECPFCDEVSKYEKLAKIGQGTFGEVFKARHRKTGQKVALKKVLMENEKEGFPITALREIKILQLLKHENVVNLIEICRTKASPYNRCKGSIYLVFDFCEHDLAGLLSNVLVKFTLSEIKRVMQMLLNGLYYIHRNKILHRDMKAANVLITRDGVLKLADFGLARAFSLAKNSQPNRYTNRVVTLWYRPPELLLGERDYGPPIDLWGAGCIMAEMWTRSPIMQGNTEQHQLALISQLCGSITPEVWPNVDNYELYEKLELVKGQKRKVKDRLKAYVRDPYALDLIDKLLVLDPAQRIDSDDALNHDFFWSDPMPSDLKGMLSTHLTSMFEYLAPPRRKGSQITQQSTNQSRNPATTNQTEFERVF

[2] = Microsomal stability in human liver microsomes assessed as residual activity at 5 uM incubated for 15 min in presence of NADPH generating system by HPLC-MS analysis; type: ADME, Microsome; settings: read-out: Stability
[3] = Stability of the compound in stimulated gastric fluid pH 1.2 at 5 uM incubated for 30 mins by HPLC-MS analysis; type: physicochemical; settings: simulated gastric fluid, read-out: Stability
[4] = Apparent permeability of compound across apical to basolateral side in human Caco-2 cells at 10 uM incubated for 2 hrs; type: ADME, cell-based
[5] = tested on: DU-145; assay: Antiproliferative activity against human DU-145 cells incubated for 72 hrs by MTT assay; type: functional, cell-based; settings: DU-145, 72 h
[6] = tested on: DU-145; assay: Upregulation of CDK9 expression in human DU-145 cells by Western blot analysis; type: functional, cell-based
[7] = Stability in mouse serum at 5 uM measured after 360 mins by HPLC analysis; type: ADME, cell-free; settings: read-out: Stability
[8] = Drug uptake in human DU-145 cells assessed as increase in green fluorescence in cytoplasm at 1 uM incubated for 2 hrs by live-cell confocal laser scanning microscopy based analysis; type: ADME; settings: du-145, 2 h
[9] = Drug uptake in human DU-145 cells assessed as increase in green fluorescence in nucleus at 1 uM incubated for 2 hrs by live-cell confocal laser scanning microscopy based analysis; type: ADME; settings: du-145, 2 h
[10] = tested on: LNCaP; assay: Antiproliferative activity against human LNCaP cells incubated for 72 hrs by MTT assay; type: functional, cell-based
[11] = tested on: CWR22R; assay: Antiproliferative activity against human 22Rv1 cells incubated for 72 hrs by MTT assay; type: functional, cell-based; settings: 22Rv1, 72 h
[12] = tested on: PC-3; assay: Antiproliferative activity against human PC-3 cells incubated for 72 hrs by MTT assay; type: functional, cell-based; settings: PC-3, 72 h
[13] = tested on: VCaP; assay: Antiproliferative activity against human VCaP cells incubated for 72 hrs by MTT assay; type: functional, cell-based
[14] = tested on: T47D; assay: Antiproliferative activity against human T47D cells incubated for 72 hrs by MTT assay; type: functional, cell-based
[15] = tested on: MCF7; assay: Antiproliferative activity against human MCF7 cells incubated for 72 hrs by MTT assay; type: functional, cell-based; settings: MCF7, 72 h
[16] = Half life in BALB/c mouse at 10 mg/kg, ip measured upto 24 hrs by LC-MS/MS analysis; type: ADME, organism-based; settings: in vivo
[17] = Cmax in BALB/c mouse at 10 mg/kg, ip measured upto 24 hrs by LC-MS/MS analysis; type: ADME, organism-based; settings: in vivo
[18] = Tmax in BALB/c mouse at 10 mg/kg, ip measured upto 24 hrs by LC-MS/MS analysis; type: ADME, organism-based; settings: in vivo
[19] = Half life in BALB/c mouse at 2 mg/kg, iv measured upto 24 hrs by LC-MS/MS analysis; type: ADME, organism-based; settings: in vivo
[20] = Half life in BALB/c mouse at 10 mg/kg, po measured upto 24 hrs by LC-MS/MS analysis; type: ADME, organism-based; settings: in vivo
[21] = Cmax in BALB/c mouse at 10 mg/kg, po measured upto 24 hrs by LC-MS/MS analysis; type: ADME, organism-based; settings: in vivo
[22] = Tmax in BALB/c mouse at 10 mg/kg, po measured upto 24 hrs by LC-MS/MS analysis; type: ADME, organism-based; settings: in vivo
[23] = tested on: DU-145; assay: Antitumor activity against human DU-145 cells xenografted in BALB/c mouse model assessed as reduction in tumor volume at 5 mg/kg, ip measured every 12 hrs for 16 days; type: functional, organism-based; settings: time 16.0 day
[24] = tested on: DU-145; assay: Antitumor activity against human DU-145 cells xenografted in BALB/c mouse model assessed as reduction in tumor volume at 10 mg/kg, ip measured every 12 hrs for 16 days; type: functional, organism-based; settings: time 16.0 day
[25] = Toxicity in BALB/c mouse xenografted with human DU-145 cells assessed as effect on body weight at 5 mg/kg, ip measured every 12 hrs for 16 days; type: organism-based; settings: in vivo, 384 h, time 16 day
[26] = Toxicity in BALB/c mouse xenografted with human DU-145 cells assessed as effect on body weight at 10 mg/kg, ip measured every 12 hrs for 16 days; type: organism-based; settings: in vivo, 384 h, time 16 day
[27] = Toxicity in BALB/c mouse assessed as change in alanine transferase (ALT) level in blood at 5 mg/kg, ip measured every 12 hrs for 16 days by biochemical automatic analyzer; type: organism-based; settings: in vivo, 384 h, time 16 day
[28] = Toxicity in BALB/c mouse assessed as change in aspartate transaminase (AST) level in blood at 5 mg/kg, ip measure every 12 hrs for 16 days by biochemical automatic analyzer; type: organism-based; settings: in vivo, 384 h, time 16 day
[29] = Toxicity in BALB/c mouse assessed as change in blood urea nitrogen level in blood at 5 mg/kg, ip measured every 12 hrs for 16 days by biochemical automatic analyzer; type: organism-based; settings: in vivo, 384 h, time 16 day
[30] = Toxicity in BALB/c mouse assessed as change in creatinine level in blood at 5 mg/kg, ip measured every 12 hrs for 16 days by biochemical automatic analyzer; type: organism-based; settings: in vivo, 384 h, time 16 day
[31] = Toxicity in BALB/c mouse assessed as change in alanine transferase (ALT) level in blood at 10 mg/kg, ip measured every 12 hrs for 16 days by biochemical automatic analyzer; type: organism-based; settings: in vivo, 384 h, time 16 day
[32] = Toxicity in BALB/c mouse assessed as change in aspartate transaminase (AST) level in blood at 10 mg/kg, ip measure every 12 hrs for 16 days by biochemical automatic analyzer; type: organism-based; settings: in vivo, 384 h, time 16 day
[33] = Toxicity in BALB/c mouse assessed as change in blood urea nitrogen level in blood at 10 mg/kg, ip measured every 12 hrs for 16 days by biochemical automatic analyzer; type: organism-based; settings: in vivo, 384 h, time 16 day
[34] = Toxicity in BALB/c mouse assessed as change in creatinine level in blood at 10 mg/kg, ip measured every 12 hrs for 16 days by biochemical automatic analyzer; type: organism-based; settings: in vivo, 384 h, time 16 day

SMILES: CC(=O)N[C@H](CC(C)C)C(=O)N[C@@H](C)C(=O)N[C@@H](CC(C)C)C(=O)N[C@@H](CCC(N)=O)C(=O)N[C@H](C(=O)N[C@H](CC(C)C)C(=O)NCC(=O)N[C@@H](Cc1ccccc1)C(=O)N[C@H](CCC(N)=O)C(=O)N[C@@H](CC(C)C)C(=O)N[C@H](C(N)=O)[C@@H](C)O)[C@@H](C)O
- IC50 [1]: 0.0105 µM
- remaining at 0.25 h, 5 µM [2]: 95.6%
- remaining at 0.5 h, 5 µM [3]: 94.2%
- Papp A→B at 2 h, 10 µM [4]: 26.8 ×10⁻⁶ cm/s
- IC50 [5]: 0.82 µM
- Activity [6]: Active

SMILES: CC(=O)N[C@H](CC(N)=O)C(=O)N[C@H](CCC(N)=O)C(=O)N[C@@H](CC(C)C)C(=O)NCC(=O)N[C@@H](Cc1ccccc1)C(=O)N[C@H](CC(C)C)C(=O)N[C@@H](CC(C)C)C(=O)N[C@@H](C)C(=O)N[C@H](C(=O)N[C@@H](CCC(N)=O)C(=O)N[C@H](C(N)=O)[C@@H](C)O)[C@@H](C)O
- IC50 [1]: > 0.05 µM
- IC50 [5]: > 50 µM

SMILES: CC(=O)N[C@H](CC(C)C)C(=O)N[C@@H](C)C(=O)N[C@@H](CC(C)C)C(=O)N[C@@H](CCC(N)=O)C(=O)N[C@H](C(=O)N[C@H](CC(C)C)C(=O)NCC(=O)N[C@@H](Cc1ccccc1)C(=O)N[C@H](CCC(N)=O)C(=O)N[C@@H](CC(C)C)C(=O)N[C@H](C(N)=O)C(C)C)[C@@H](C)O
- IC50 [1]: 0.0175 µM
- IC50 [5]: 1.67 µM

SMILES: Nc1n[nH]c(N)c1/N=N/c1ccc(O)cc1
- IC50 [5]: 33.1 µM

SMILES: CC(=O)N[C@H](CC(N)=O)C(=O)N[C@@H](C)C(=O)N[C@@H](CC(C)C)C(=O)N[C@@H](CCC(N)=O)C(=O)N[C@H](C(=O)N[C@H](CC(C)C)C(=O)NCC(=O)N[C@@H](Cc1ccccc1)C(=O)N[C@H](CCC(N)=O)C(=O)N[C@@H](CC(C)C)C(=O)N[C@H](C(N)=O)[C@@H](C)O)[C@@H](C)O
- IC50 [1]: 0.00416 µM
- remaining at 0.25 h, 5 µM [2]: 98.2%
- remaining at 0.5 h, 5 µM [3]: 96.7%
- remaining at 6 h, 5 µM [7]: 87%
- Papp A→B at 2 h, 10 µM [4]: 29.8 ×10⁻⁶ cm/s
- Drug uptake [8]: Active
- Drug uptake [9]: Active
- IC50 [5]: 0.35 µM
- IC50 [10]: 0.41 µM
- IC50 [11]: 0.95 µM
- IC50 [12]: 0.72 µM
- IC50 [13]: 0.81 µM
- IC50 [14]: 0.46 µM
- IC50 [15]: 0.59 µM
- half-life [16]: 4.62 h
- Cmax [17]: 2690 ng/mL
- Tmax [18]: 0.49 h
- half-life [19]: 5.13 h
- half-life [20]: 4.87 h
- Cmax [21]: 3200 ng/mL
- Tmax [22]: 0.41 h
- Activity [23]: Active
- Activity [24]: Active; Compound Showed More Effect
- Activity [25]: Toxic
- Activity [26]: Toxic
- Activity [27]: Toxic
- Activity [28]: Toxic
- Activity [29]: Toxic
- Activity [30]: Toxic
- Activity [31]: Toxic
- Activity [32]: Toxic
- Activity [33]: Toxic
- Activity [34]: Toxic
- Activity [6]: Active

SMILES: CC(=O)N[C@H](C)C(=O)N[C@@H](C)C(=O)N[C@@H](CC(C)C)C(=O)N[C@@H](C)C(=O)N[C@H](C(=O)N[C@H](CC(C)C)C(=O)NCC(=O)N[C@@H](Cc1ccccc1)C(=O)N[C@H](C)C(=O)N[C@@H](CC(C)C)C(=O)N[C@@H](C)C(N)=O)[C@@H](C)O
- IC50 [1]: > 0.05 µM
- IC50 [5]: > 50 µM

Continued by falling IC50 [5], values first:

- IC50 [1]: 0.0874 µM
- IC50 [5]: 9.03 µM
SMILES: CC(=O)N[C@@H](CC(N)=O)C(=O)N[C@@H](C)C(=O)N[C@@H](CC(C)C)C(=O)N[C@@H](CCC(N)=O)C(=O)N[C@H](C(=O)N[C@H](CC(C)C)C(=O)NCC(=O)N[C@@H](Cc1ccccc1)C(=O)N[C@H](CCC(N)=O)C(=O)N[C@@H](CC(C)C)C(=O)N[C@H](C(N)=O)[C@@H](C)O)[C@@H](C)O

- IC50 [1]: 0.0368 µM
- IC50 [5]: 4.05 µM
SMILES: CC(=O)N[C@H](CC(N)=O)C(=O)N[C@@H](C)C(=O)N[C@@H](CC(C)C)C(=O)N[C@@H](CCC(N)=O)C(=O)N[C@H](C(=O)N[C@H](CC(C)C)C(=O)NCC(=O)N[C@@H](Cc1ccccc1)C(=O)N[C@H](C)C(=O)N[C@@H](CC(C)C)C(=O)N[C@H](C(N)=O)[C@@H](C)O)[C@@H](C)O

- IC50 [1]: 0.0239 µM
- IC50 [5]: 2.52 µM
SMILES: CC(=O)N[C@H](CC(N)=O)C(=O)N[C@@H](C)C(=O)N[C@H](C(=O)N[C@@H](CCC(N)=O)C(=O)N[C@H](C(=O)N[C@H](CC(C)C)C(=O)NCC(=O)N[C@@H](Cc1ccccc1)C(=O)N[C@H](CCC(N)=O)C(=O)N[C@@H](CC(C)C)C(=O)N[C@H](C(N)=O)[C@@H](C)O)[C@@H](C)O)C(C)C
